# Test results as given in ChEMBL document CHEMBL1201862, “PubChem BioAssay data set” (2004).
#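 Values below derive from 48-hour exposures of cells grown in 96-well plates, with endpoints linearly interpolated between the two concentrations bracketing the appropriate inhibition level. Here, GI50 denotes the concentration required for 50% inhibition of growth.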 Activity calls are given as the source filed them. Rule as the data show it: active = GI50 up to about 1.1 µM and inactive = higher.
# How the values were obtained:
# Assay in all cases: DTP human tumour cell line panel, 48 h
# 786-0 = system: 786-0
# A498 = system: A498
# A549 = system: A549
# ACHN = system: ACHN
# CAKI-1 = system: CAKI-1
# CCRF-CEM = system: CCRF-CEM
# COLO 205 = system: COLO 205
# DU-145 = system: DU-145
# EKVX = system: EKVX
# HCC 2998 = system: HCC 2998
# HCT-116 = system: HCT-116
# HCT-15 = system: HCT-15
# HL-60 = system: HL-60
# HOP-62 = system: HOP-62
# HOP-92 = system: HOP-92
# HT-29 = system: HT-29
# Hs-578T = system: Hs-578T
# IGROV-1 = system: IGROV-1
# K562 = system: K562
# KM12 = system: KM12
# LOX IMVI = system: LOX IMVI
# M14 = system: M14
# MCF7 = system: MCF7
# MDA-MB-231 = system: MDA-MB-231
# MDA-N = system: MDA-N
# MOLT-4 = system: MOLT-4
# Malme-3M = system: Malme-3M
# NCI-H23 = system: NCI-H23
# NCI-H460 = system: NCI-H460
# NCI/ADR-RES = system: NCI/ADR-RES
# OVCAR-3 = system: OVCAR-3
# OVCAR-4 = system: OVCAR-4
# OVCAR-5 = system: OVCAR-5
# OVCAR-8 = system: OVCAR-8
# PC-3 = system: PC-3
# RPMI-8226 = system: RPMI-8226
# SF-268 = system: SF-268
# SF-295 = system: SF-295
# SF-539 = system: SF-539
# SK-MEL-28 = system: SK-MEL-28
# SK-MEL-2 = system: SK-MEL-2
# SK-MEL-5 = system: SK-MEL-5
# SK-OV-3 = system: SK-OV-3
# SN12C = system: SN12C
# SNB-19 = system: SNB-19
# SNB-75 = system: SNB-75
# SR = system: SR
# SW-620 = system: SW-620
# T47D = system: T47D
# TK-10 = system: TK-10
# U-251 = system: U-251
# UACC-257 = system: UACC-257
# UO-31 = system: UO-31
# BT-549 = system: BT-549
# MDA-MB-435 = system: MDA-MB-435
# NCI-H226 = system: NCI-H226
# NCI-H522 = system: NCI-H522
# RXF 393 = system: RXF 393
smiles,measurement,setting,value
c1ccc2c(c1)c1c(n2CCOCCN2CCOCC2)CCCC1,GI50,786-0,> 10 µM (inactive)
same,GI50,A498,34.1 µM (inactive)
same,GI50,A549,45.2 µM (inactive)
same,GI50,ACHN,30.8 µM (inactive)
same,GI50,CAKI-1,15.2 µM (inactive)
same,GI50,CCRF-CEM,21.8 µM (inactive)
same,GI50,COLO 205,> 10 µM (inactive)
same,GI50,DU-145,> 100 µM (inactive)
same,GI50,EKVX,30.9 µM (inactive)
same,GI50,HCC 2998,> 10 µM (inactive)
same,GI50,HCT-116,29.8 µM (inactive)
same,GI50,HCT-15,36.5 µM
same,GI50,HL-60,20 µM (inactive)
same,GI50,HOP-62,26.3 µM (inactive)
same,GI50,HOP-92,29.2 µM (inactive)
same,GI50,HT-29,15.6 µM (inactive)
same,GI50,Hs-578T,57 µM (inactive)
same,GI50,IGROV-1,36 µM (inactive)
same,GI50,K562,33.6 µM (inactive)
same,GI50,KM12,31.8 µM (inactive)
same,GI50,LOX IMVI,20.2 µM (inactive)
same,GI50,M14,12.4 µM (inactive)
same,GI50,MCF7,38.8 µM (inactive)
same,GI50,MDA-MB-231,17.3 µM (inactive)
same,GI50,MDA-N,37.8 µM (inactive)
same,GI50,MOLT-4,25 µM (inactive)
same,GI50,Malme-3M,13.8 µM (inactive)
same,GI50,NCI-H23,32.3 µM (inactive)
same,GI50,NCI-H460,27.5 µM (inactive)
same,GI50,NCI/ADR-RES,16.3 µM (inactive)
same,GI50,OVCAR-3,26.9 µM (inactive)
same,GI50,OVCAR-4,14.3 µM (inactive)
same,GI50,OVCAR-5,25.1 µM (inactive)
same,GI50,OVCAR-8,36.7 µM (inactive)
same,GI50,PC-3,24.7 µM (inactive)
same,GI50,RPMI-8226,21 µM (inactive)
same,GI50,SF-268,20.7 µM (inactive)
same,GI50,SF-295,23.9 µM (inactive)
same,GI50,SF-539,86.1 µM (inactive)
same,GI50,SK-MEL-28,19.5 µM (inactive)
same,GI50,SK-MEL-2,24.2 µM (inactive)
same,GI50,SK-MEL-5,18.2 µM (inactive)
same,GI50,SK-OV-3,55.2 µM (inactive)
same,GI50,SN12C,> 10 µM (inactive)
same,GI50,SNB-19,> 100 µM (inactive)
same,GI50,SNB-75,2.36 µM (inactive)
same,GI50,SR,30.3 µM (inactive)
same,GI50,SW-620,34.1 µM (inactive)
same,GI50,T47D,32.2 µM (inactive)
same,GI50,TK-10,18.4 µM (inactive)
same,GI50,U-251,23.6 µM (inactive)
same,GI50,UACC-257,21.1 µM (inactive)
same,GI50,UO-31,27.1 µM (inactive)
Cn1c2nc3ccccc3c-2cc2ccccc21 [NEOCRYPTOLEPINE],GI50,786-0,3.84 µM (inactive)
same,GI50,BT-549,3.19 µM (inactive)
same,GI50,CCRF-CEM,3.15 µM (inactive)
same,GI50,COLO 205,2.93 µM (inactive)
same,GI50,DU-145,6.82 µM (inactive)
same,GI50,EKVX,2.28 µM (inactive)
same,GI50,HCC 2998,2.48 µM (inactive)
same,GI50,HL-60,2.38 µM (inactive)
same,GI50,HT-29,2.51 µM (inactive)
same,GI50,IGROV-1,2.7 µM (inactive)
same,GI50,K562,3.41 µM (inactive)
same,GI50,LOX IMVI,3.27 µM (inactive)
same,GI50,MCF7,2.74 µM (inactive)
same,GI50,MDA-MB-435,4.2 µM (inactive)
same,GI50,NCI-H460,2.38 µM (inactive)
same,GI50,OVCAR-3,5.18 µM (inactive)
same,GI50,PC-3,3.3 µM (inactive)
same,GI50,SF-295,4.59 µM (inactive)
same,GI50,SF-539,3.05 µM (inactive)
same,GI50,SK-OV-3,6.47 µM (inactive)
same,GI50,SR,2.2 µM (inactive)
same,GI50,SW-620,3.68 µM (inactive)
same,GI50,T47D,4.81 µM (inactive)
CCCCCCCC/C=C\CCCCCCC(F)C(=O)O (configuration not stated),GI50,786-0,> 12.5 µM (inactive)
same,GI50,A498,> 12.5 µM (inactive)
same,GI50,A549,> 12.5 µM (inactive)
same,GI50,ACHN,> 12.5 µM (inactive)
same,GI50,CAKI-1,> 12.5 µM (inactive)
same,GI50,CCRF-CEM,> 12.5 µM (inactive)
same,GI50,COLO 205,> 12.5 µM (inactive)
same,GI50,DU-145,> 12.5 µM (inactive)
same,GI50,EKVX,2.25 µM (inactive)
same,GI50,HCC 2998,> 12.5 µM (inactive)
same,GI50,HCT-116,> 12.5 µM (inactive)
same,GI50,HCT-15,> 12.5 µM
same,GI50,HL-60,> 12.5 µM (inactive)
same,GI50,HOP-62,> 12.5 µM (inactive)
same,GI50,HOP-92,> 12.5 µM (inactive)
same,GI50,HT-29,> 12.5 µM (inactive)
same,GI50,Hs-578T,> 12.5 µM (inactive)
same,GI50,IGROV-1,> 12.5 µM (inactive)
same,GI50,K562,> 12.5 µM (inactive)
same,GI50,KM12,> 12.5 µM (inactive)
same,GI50,LOX IMVI,> 12.5 µM (inactive)
same,GI50,M14,> 12.5 µM (inactive)
same,GI50,MCF7,> 12.5 µM (inactive)
same,GI50,MDA-MB-231,> 12.5 µM (inactive)
same,GI50,MDA-MB-435,> 12.5 µM (inactive)
same,GI50,MDA-N,> 12.5 µM (inactive)
same,GI50,MOLT-4,> 12.5 µM (inactive)
same,GI50,Malme-3M,> 12.5 µM (inactive)
same,GI50,NCI-H226,> 12.5 µM (inactive)
same,GI50,NCI-H23,> 12.5 µM (inactive)
same,GI50,NCI-H522,> 12.5 µM (inactive)
same,GI50,NCI/ADR-RES,> 12.5 µM (inactive)
same,GI50,OVCAR-3,> 12.5 µM (inactive)
same,GI50,OVCAR-4,> 12.5 µM (inactive)
same,GI50,OVCAR-5,> 12.5 µM (inactive)
same,GI50,OVCAR-8,> 12.5 µM (inactive)
same,GI50,PC-3,> 12.5 µM (inactive)
same,GI50,RPMI-8226,11.2 µM (inactive)
same,GI50,RXF 393,> 12.5 µM (inactive)
same,GI50,SF-268,> 12.5 µM (inactive)
same,GI50,SF-295,> 12.5 µM (inactive)
same,GI50,SF-539,> 12.5 µM (inactive)
same,GI50,SK-MEL-28,> 12.5 µM (inactive)
same,GI50,SK-MEL-2,> 12.5 µM (inactive)
same,GI50,SK-MEL-5,> 12.5 µM (inactive)
same,GI50,SK-OV-3,> 12.5 µM (inactive)
same,GI50,SN12C,> 12.5 µM (inactive)
same,GI50,SNB-19,> 12.5 µM (inactive)
same,GI50,SNB-75,> 12.5 µM (inactive)
same,GI50,SR,> 12.5 µM (inactive)
same,GI50,SW-620,> 12.5 µM (inactive)
same,GI50,T47D,> 12.5 µM (inactive)
same,GI50,TK-10,> 12.5 µM (inactive)
same,GI50,U-251,> 12.5 µM (inactive)
same,GI50,UACC-257,> 12.5 µM (inactive)
same,GI50,UO-31,> 12.5 µM (inactive)
